The numbers were not newly measured in US6417229B1, “α-sulfonylamino hydroxamic acid inhibitors of matrix metalloproteinases for the treatment of peripheral or central nervous system disorders” (Pfizer Inc, priority 1999, dated 2002), which cites them from elsewhere.

The subject of series [1] is Experimental Autoimmune Neuritis (EAN). The note with it: Redford et al. 1997.
The test system of another series is MMP-9 induction by Aβ. The following applies: rat microglia; Gottschall 1996.
In series [2] the test system is Experimental Autoimmune Encephelomyelitis (EAE). The following applies: mice with EAE; Gijbels 1994.

The structures appear in SMILES notation.

With `C=CC[C@H](C(=O)NO)[C@@H](CC(C)C)C(=O)N[C@@H](Cc1ccccc1)C(=O)NC` [BB-1101], the “effect on EAN” value in series [1] is recorded as “attenuates Experimental Autoimmune Neuritis (EAN)”. Take `COc1ccc2c(c1)c(CC(=O)O)c(C)n2C(=O)c1ccc(Cl)cc1` [indomethacin]: the “inhibition of MMP-9 induction by Aβ” value in the series with MMP-9 induction by Aβ is recorded as “can be inhibited”. Regarding `CNC(=O)[C@H](Cc1c[nH]c2ccccc12)NC(=O)[C@@H](CC(=O)NO)CC(C)C` [GM6001], in series [2], the “effect on EAE” value is “suppress the development of, or reverse established, EAE”.
